Test results taken from patent publication US9981044B2, “Activation of adaptive immune processes for the treatment of cancers and infectious diseases” (Susavion Biosciences, Inc., priority 2014, dated 2018).
Where a SMILES comes first, the peptide text is derived from it. Bridges are numbered along the chain shown (N, C = ends). Roman numbers before positions name the chains, in order.

Experiments:
[1] = tested on: ovarian cancer cell line ID8; experiment: Survival of mice implanted with ID8 cells; format: in vivo, C57Bl/6 mice
Protocol: Tumors were allowed to progress for 45 days before the animal were injected with svD2 every other day.
Female C57Bl/6 mice were implanted with ID8 cells. After allowing the cell to develop into tumors for 45 days, the animals received injections of svD2 every other day at a dose of 1 nmol/g body weight or 0.1 nmol/g body weight. Accumulation of ascites was monitored by weight of the animals as the result of expansion of the peritoneal cavity. […] Table 3 summarizes the survival data including a treatment with paclitaxel, which is a standard-of-care chemotherapeutic drug. The animals were given paclitaxel at a dose of 18 mg/kg body weight on days 45, 47 and 49 of the experiment.

[2] = tested on: peritoneal cells; experiment: Response of peritoneal cells in mice (flow cytometry); format: in vivo; conditions: C57BL/6 mice
Protocol: The number of cells is indicated as a ratio of the total number of each cell type normalized to the number of cells in untreated control samples.
To examine whether svD2 effectively stimulates the immune system in vivo, the peptide was injected subcutaneously on alternate days into Th1-poised C57BL/6 strain mice at a dose of 1 μmole/kg.

[3] = Solubility of the polypeptide; format: physicochemical
From the text: svD2 in lyophilized form is a white fluffy powder using trifluoroacetate (TFA) or acetate as a counterion. Net polypeptide content with and without the counter ion was approximately 88% and 73%, respectively. The remainder was likely water of hydration of the highly polar polypeptide. Solubility of the polypeptide in water is high. In the preparation of aqueous pharmaceutical compositions of the polypeptide with any of the pharmaceutically acceptable carriers described above, concentrations of the polypeptide in isotonic saline of 10 mM, and possibly somewhat higher, can be readily achieved. According to representative embodiments, therefore, the polypeptide is administered to a subject suffering from cancer in an aqueous pharmaceutical composition having a polypeptide concentration generally from about 0.1 mM to about 10 mM, typically from about 0.1 mM to about 5 mM, and a pharmaceutically acceptable carrier.

[4] = tested on: human PBMC cultures; experiment: Phagocytosis of opsonized microspheres in human PBMC cultures; format: cell-based; conditions: for Beads/cell (mean ± SD): treated 20 h (50 nM svD2 or 100 ng/mL IFNγ), challenged 1 h with microspheres opsonized with rabbit antiserum, 15 cells
Protocol: Whether the peptide svD2 stimulates phagocytosis was studied in the human PBMC cultures. The cells were treated 20 h with vehicle (phosphate-buffered saline, PBS), 50 nM svD2 or 100 ng/mL IFNγ, and then challenged 1 h with microspheres. Cells were fixed with 2% formalin and washed with PBS. Beads in each cell were counted on microscope images, with 15 cells analyzed for each treatment.

[5] = Toxicity in vivo
[6] = tested on: Human peripheral blood mononuclear cells; experiment: Cytokine release by human PBMCs (cytokine antibody array); format: cell-based; conditions: 4-hour treatment, svD2 100 nM
Protocol: The polypeptide svD2, synthesized in Example 1 above, was evaluated in terms of a number of biological activities thought to correlate with its effectiveness against cancer.

[7] = paclitaxel 18 mg/kg on days 45, 47 and 49
[8] = svD2 0.1 nmol/g every other day from day 45
[9] = svD2 1 nmol/g every other day from day 45

Question: Which “Mean survival” value [1, 7] does the source give for `CC(=O)O[C@H]1C(=O)[C@@]2(C)[C@H]([C@H](OC(=O)c3ccccc3)[C@]3(O)C[C@H](OC(=O)[C@H](O)[C@@H](NC(=O)c4ccccc4)c4ccccc4)C(C)=C1C3(C)C)[C@]1(OC(C)=O)CO[C@@H]1C[C@@H]2O` [Paclitaxel, paclitaxel, reference compound] here?
Answer: The value was 81.5 days.

Question: And the Number of deaths [1, 7]?
Answer: Its Number of deaths is 10.

Question: Which “Survival rate of mice implanted with ID8 cells” value ([1]; both doses, 1 nmol/g and 0.1 nmol/g body weight) does the source give for `CC(C)[C@H](N)C(=O)N[C@@H](CO)C(=O)N[C@@H](CC(N)=O)C(=O)N[C@@H](CCC(N)=O)C(=O)N[C@@H](Cc1c[nH]cn1)C(=O)NCC(=O)NCC(=O)NCC(=O)N[C@@H](CO)C(=O)NCCCC[C@H](NC(=O)[C@H](CO)NC(=O)CNC(=O)CNC(=O)CNC(=O)[C@H](Cc1c[nH]cn1)NC(=O)[C@H](CCC(N)=O)NC(=O)[C@H](CC(N)=O)NC(=O)[C@H](CO)NC(=O)[C@@H](N)C(C)C)C(=O)NCCCC[C@H](NC(=O)[C@H](CCCCNC(=O)[C@H](CO)NC(=O)CNC(=O)CNC(=O)CNC(=O)[C@H](Cc1c[nH]cn1)NC(=O)[C@H](CCC(N)=O)NC(=O)[C@H](CC(N)=O)NC(=O)[C@H](CO)NC(=O)[C@@H](N)C(C)C)NC(=O)[C@H](CO)NC(=O)CNC(=O)CNC(=O)CNC(=O)[C@H](Cc1c[nH]cn1)NC(=O)[C@H](CCC(N)=O)NC(=O)[C@H](CC(N)=O)NC(=O)[C@H](CO)NC(=O)[C@@H](N)C(C)C)C(N)=O` [svD2, [(VSNQHGGGS)2K]2K-NH2] (I: H-VSNQHGGGSKK-NH2 / II: H-VSNQHGGGSK / III: H-VSNQHGGGS / IV: H-VSNQHGGGS; amide I:10-IV:C, I:11-II:C, II:10-III:C; N-terminus assumed) here?
Answer: The value was “improved the survival rate”.

Question: And the “Mean survival” value [1, 8]?
Answer: The value was 74.5 days.

Question: And the Number of deaths [1, 8]?
Answer: Its Number of deaths is 4.

Question: And the “Mean survival” value [1, 9]?
Answer: Its value is 74 days.

Question: What about the Number of deaths [1, 9] of the same molecule?
Answer: Its Number of deaths is 4.

Question: And the “Memory B cells in the peritoneal cavity” value ([2]; 1 nmole/g doses, flow cytometry 24 hours after each injection)?
Answer: The value was “increase in memory B cells”.

Question: And the “Mature immune cells in peritoneal cells” value ([2]; 1 μmole/kg subcutaneously on alternate days, 24 hours after the second injection)?
Answer: The value was “several-fold increases”.

Question: And the “Changes in mature cell populations (CD3, CD8, NK1.1, CD19, CD69)” value ([2]; 1 μmole/kg subcutaneously, 24 hours after the first injection)?
Answer: Its value is “small”.

Question: And the solubility ([3]; isotonic saline, saline or isotonic, read-out: Achievable concentration in isotonic saline)?
Answer: The solubility was no less than 10 mM.

Question: What about the Solubility in water ([3]; water) of the same molecule?
Answer: The Solubility in water was “high”.

Question: And the “Stimulation of phagocytic cells” value ([4]; human PBMC cultures, 50 nM svD2, 20 h)?
Answer: Its value is “does not significantly stimulate phagocytic cells”.

Question: What about the “Beads/cell (mean ± SD)” value [4] of the same molecule?
Answer: The value was 1.3 ± 1.8 Beads/cell.

Question: What about the “Toxicity in treated mice” value [5] of the same molecule?
Answer: The value was “No evidence of toxicity”.

Question: What about the “Relative level of Eotaxin released” value [6] of the same molecule?
Answer: Its value is 47.

Question: And the “Relative level of Eotaxin-2 released” value [6]?
Answer: The value was 470.

Question: And the “Relative level of GM-CSF released” value [6]?
Answer: Its value is 96.

Question: What about the “Relative level of ICAM-1 released” value [6] of the same molecule?
Answer: The value was 70.

Question: What about the “Relative level of IFNγ released” value [6] of the same molecule?
Answer: The value was 170.

Question: What about the “Relative level of IL-1a released” value [6] of the same molecule?
Answer: The value was 322.

Question: And the “Relative level of IL-12p70 released” value [6]?
Answer: The value was 117.

Question: And the “Relative level of IL-15 released” value [6]?
Answer: The value was 137.

Question: What about the “Relative level of IL-17 released” value [6] of the same molecule?
Answer: The value was 21.

Question: And the “Relative level of IL-21 released” value [6]?
Answer: The value was 130.

Question: And the “Relative level of IP-10 released” value [6]?
Answer: Its value is 377.

Question: What about the “Relative level of MCP-2 released” value [6] of the same molecule?
Answer: The value was 97.

Question: And the “Relative level of MIG released” value [6]?
Answer: The value was 94.

Question: What about the “Relative level of PDGF-BB released” value [6] of the same molecule?
Answer: Its value is 82.

Question: And the “Relative level of TIMP-2 released” value [6]?
Answer: The value was 285.

Question: And the “Relative level of TNF-α released” value [6]?
Answer: Its value is 138.

Question: What about the “Relative level of TNF-β released” value [6] of the same molecule?
Answer: The value was 93.

B1: IFNγ: cytokine used as comparator treatment, 100 ng/mL in phagocytosis test (protein, UniProt P01579 24-161, looked up)
Interferon gamma: QDPYVKEAENLKKYFNAGHSDVADNGTLFLGILKNWKEESDRKIMQSQIVSFYFKLFKNFKDDQSIQKSVETIKEDMNVKFFNSNKKKRDDFEKLTNYSVTDLNVQRKAIHELIQVMAELSPAAKTGKRKRSQMLFRG
Question: Which results are given for B1?
Answer: Beads/cell (mean ± SD) [4]: 35.8 ± 12.6 Beads/cell; Relative level of IL-21 released [6]: (IFNγ, 100)
